{"source": "paper PMC1968196", "about": "“Effect of anthracycline analogs on photolabelling of p-glycoprotein by [125I]iodomycin and [3H]azidopine: relation to lipophilicity and inhibition of daunorubicin transport in multidrug resistant cells” (British Journal of Cancer, 1993)", "key": {"[1]": {"system": "EHR2/DNR+", "conditions": "in vitro clonogenic assay; ref Friche et al., 1990b; cited from earlier work"}, "[2]": {"system": "P-glycoprotein", "experiment": "[125I]iodomycin photolabelling of Pgp in EHR2/DNR+ cells", "assay_type": "binding, mice", "conditions": "iodomycin 10 nM", "description": "(§1) Br. J. Cancer (1993), 67, 226 231 ? Macmillan Press Ltd., 1993 Effect of anthracycline analogs on photolabelling of p-glycoprotein by I'25 liodomycin and [3Hlazidopine: Relation to lipophilicity and inhibition of daunorubicin transport in multidrug resistant cells E. Frichel*, E.J.F. Demant2, M. Sehested3 & N.I. Nissen' 'Department of Medicine and Hematology, L 4042, Rigshospitalet-University Hospital, 9, Blegdamsvej, DK-2100 Copenhagen; 2Department of Biochemistry C, The Panum Institute, University of Copenhagen, DK-2200 Copenhagen; 3Department of Pathology, Sundby Hospital, DK-2300 Copenhagen, Denmark. […] We photoaffinity labelled P-glycoprotein in daunorubicin (DNR) resistant Ehrlich ascites tumour cells (EHR2/DNR + ) with a ['25I]iodinated Bolton-Hunter derivative of daunorubicin ([1251]iodomycin) and with [3H]azidopine. […] Anthracyclines are among the most valuable cytostatic agents in clinical use. Their usefulness is, however, limited by the occurrence of tumour cells with the multidrug resistance (MDR) phenotype (Beck, 1987; Bliek & Borst, 1989; Endicott & Ling, 1989; Kaye & Merry, 1985; Moscow & Cowan, 1988). MDR cells have an enhanced amount of a 150- 170 kDa plasma membrane glycoprotein, P-glycoprotein (Pgp) (Kartner et al., 1983 and 1985; Cornwell et al., 1986; Bradley et al., 1988; Beck, 1991a; Roninson, 1991), that may function as a low-specificity transport protein to facilitate the outward transport of cytotoxic agents including the anthracyclines. Thus, increased drug efflux and therefore decreased accumulation is seen in MDR cells not only to the drug for which resistance is developed but also to a wide spectrum of chemically unrelated cytostatics (Bradley et al., 1988; Fojo et al., 1985). […] The aim of this study was to examine these analogs for their ability to com- pete for ligand binding to Pgp and thus service as inhibitors for the outward drug transport system in MDR cells. Anthracycline inter-actions with Pgp were assessed using the specific photolabelling of the protein with [251I]iodomycin, a ['251]iodinated Bolton-Hunter derivative of DNR (Busche et al., 1989a) and with [3H]azidopine ([3H]AZP) which photolabels Pgp in plasma membrane vesicles from EHR2/ DNR + cells (Sehested et al., 1990) as well as in whole cells (Safa et al., 1987; Friche et al., 1990c). […] Material and methods Chemicals Duanorubicin (DNR); AdriamycinR (Doxorubicin/HCl, DOX); 4'-deoxy-4'-iododoxorubicin (DIDOX); and 4- demethoxy-DNR were kindly supplied from Farmitalia, Carlo Erba (Milan, Italy). N,N-dibenzyl-DNR was a gift from Dr Nicholas Bachur, (Baltimore, MD) and N- benzyladriamycin-14-valerate (AD 198) a gift from Professor M. Israel (Memphis, TN). Mitoxantrone was purchased from Lederle (New Jersey, USA), Aclacinomycin A from Lund- beck & Co A/S (Copenhagen, Denmark), OncovinR (Vincristine/HCl, VCR) from Eli Lilly Deutschland GMBH (Giessen, Germany), Cremophor EL from BASF Aktiengesellschaft (Ludwigshafen, Germany), and Tween 80 from the Sigma Chemical Co. (St. Louis, MO). ['251]-Bolton- Hunter reagent (2000 Ci mmol 1), [3H]AZP (42 Ci mmol- ') and non-radioactive AZP were purchased from Amersham International (Amersham, UK). All other chemicals were of analytical grade. Organic solvents were distilled prior to use. Triethylamine was distilled over ninhydrin and anhydrous methanol was stored over molecular sieve (3 A). Tumour cells Cells were either the wild-type Ehrlich ascites tumor line (EHR2) or the corresponding DNR-resistant line (EHR2/ DNR + ) (Dan0, 1971) displaying both the MDR phenotype (Sehested et al., 1990) and as recently shown, decreased Correspondence: E. Friche. Received 22 April 1992; and in revised form 21 September 1992."}, "[3]": {"system": "EHR2/DNR+", "conditions": "in vivo; ref Friche et al., 1987; cited from earlier work"}, "[4]": {"conditions": "pH 7.45", "description": "as §1"}, "[5]": {"system": "P-glycoprotein", "experiment": "[3H]azidopine photolabelling of Pgp in EHR2/DNR+ cells", "assay_type": "binding, mice", "conditions": "[3H]AZP 0.4 µM", "description": "as §1"}}, "note": "Like-named read-outs stand apart in the source and are kept apart here.", "data": [{"smiles": "COc1cccc2c1C(=O)c1c(O)c3c(c(O)c1C2=O)C[C@@](O)(C(C)=O)C[C@@H]3O[C@H]1C[C@H](N)[C@H](O)[C@H](C)O1", "note": "[Daunorubicin]", "values": [{"measurement": "Resistance of EHR2/DNR+ subline", "setting": "[1]", "result": "about 80 fold"}, {"measurement": "Per cent inhibition of [125I]iodomycin photolabelling of Pgp", "setting": "[2]; 10 µM drug (1000-fold molar excess), 30 min 37°C", "result": 52.5, "unit": "%"}, {"measurement": "Per cent inhibition of [125I]iodomycin photolabelling of Pgp", "setting": "[2]; 20 µM drug", "result": 82.7, "unit": "%"}, {"measurement": "Per cent inhibition of [125I]iodomycin photolabelling of Pgp", "setting": "[2]; 20 µM drug, listed as DNR", "result": 83, "unit": "%"}, {"measurement": "Per cent inhibition of [125I]iodomycin photolabelling of Pgp", "setting": "[2]; 40 µM drug", "result": 90.6, "unit": "%"}, {"measurement": "Per cent inhibition of [125I]iodomycin photolabelling of Pgp", "setting": "[2]; 40 µM drug, listed as DNR", "result": 90, "unit": "%"}, {"measurement": "Resistance of EHR2/DNR+ subline", "setting": "[3]", "result": "at least 16 fold"}, {"measurement": "Lipid solubility (O/W), octanol/water partition coefficient", "setting": "[4]", "result": 7.85}, {"measurement": "Per cent inhibition of [3H]AZP photolabelling of Pgp", "setting": "[5]; 10 µM drug", "result": 8.0, "unit": "%"}, {"measurement": "Per cent inhibition of [3H]AZP photolabelling of Pgp", "setting": "[5]; 20 µM drug", "result": 33.2, "unit": "%"}, {"measurement": "Per cent inhibition of [3H]AZP photolabelling of Pgp", "setting": "[5]; 40 µM drug (100-fold molar excess)", "result": 50.0, "unit": "%"}]}]}
